Measurements from the supplement of paper PMC10307832.

How the values were obtained:
Test in all cases: relative viability (nuclei count vs DMSO), 5 days (fraction); higher = more cells survive
Bortezomib + Navitoclax = compound: CC(C)C[C@H](NC(=O)[C@H](Cc1ccccc1)NC(=O)c1cnccn1)B(O)O [Bortezomib] + CC1(C)CCC(c2ccc(Cl)cc2)=C(CN2CCN(c3ccc(C(=O)NS(=O)(=O)c4ccc(N[C@H](CCN5CCOCC5)CSc5ccccc5)c(S(=O)(=O)C(F)(F)F)c4)cc3)CC2)C1 [Navitoclax] (partner 0.5 µM)
In short: (§1)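 Lung cancer cell lines in 1536-well plates got either a single drug or a fixed anchor-drug dose together with five library-drug doses (not always all listed) in √10 steps, by pin tool, on the day after seeding. Nuclei were counted after 5 days, and relative viability is the treated-to-vehicle ratio of nuclei counts. Values are medians of duplicate plates.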

Bortezomib + Pemetrexed = compound: CC(C)C[C@H](NC(=O)[C@H](Cc1ccccc1)NC(=O)c1cnccn1)B(O)O [Bortezomib] + Nc1nc2[nH]cc(CCc3ccc(C(=O)N[C@@H](CCC(=O)O)C(=O)O)cc3)c2c(=O)[nH]1 [Pemetrexed] (partner 0.2 µM)
In short: as §1

[1] = compound: CC1=CC(=NN1)NC2=CC(=NC(=N2)/C=C/C3=CC=CC=C3)N4CCN(CC4)C + CC(C)C[C@H](NC(=O)[C@H](Cc1ccccc1)NC(=O)c1cnccn1)B(O)O [Bortezomib] (partner 0.002 µM)
In short: as §1

[2] = compound: CC1=CC(=NN1)NC2=CC(=NC(=N2)/C=C/C3=CC=CC=C3)N4CCN(CC4)C + N=C(N)NC(=N)NCCc1ccccc1 [Phenformin] (partner 250 µM)
In short: as §1

Row | Cell Line | relative viability (Bortezomib + Navitoclax; first compound 0.0002 µM) | relative viability (Bortezomib + Navitoclax; first compound 0.000632 µM) | relative viability (Bortezomib + Navitoclax; first compound 0.002 µM) | relative viability (Bortezomib + Navitoclax; first compound 0.006325 µM) | relative viability (Bortezomib + Navitoclax; first compound 0.02 µM) | relative viability (Bortezomib + Pemetrexed; first compound 0.0002 µM) | relative viability (Bortezomib + Pemetrexed; first compound 0.000632 µM) | relative viability (Bortezomib + Pemetrexed; first compound 0.002 µM) | relative viability (Bortezomib + Pemetrexed; first compound 0.006325 µM) | relative viability (Bortezomib + Pemetrexed; first compound 0.02 µM) | relative viability ([1]; first compound 0.08 µM) | relative viability ([1]; first compound 0.253 µM) | relative viability ([1]; first compound 0.8 µM) | relative viability ([1]; first compound 2.53 µM) | relative viability ([1]; first compound 8 µM) | relative viability ([2]; first compound 0.08 µM) | relative viability ([2]; first compound 0.253 µM) | relative viability ([2]; first compound 0.8 µM) | relative viability ([2]; first compound 2.53 µM) | relative viability ([2]; first compound 8 µM)
1 | NCI-H1651 | 1.17 | 0.958 | 0.263 | 0.14 | 0.101 | 0.603 | 0.618 | 0.565 | 0.594 | 0.362 | 0.946 | 0.892 | 0.865 | 0.876 | 0.448 | 0.355 | 0.346 | 0.312 | 0.124 | 0.112
2 | NCI-H1666 | 0.832 | 1.08 | 0.848 | 0.211 | 0.196 | 0.816 | 0.872 | 0.858 | 0.579 | 0.443 | 0.892 | 0.925 | 0.872 | 0.55 | 0.215 | 0.62 | 0.556 | 0.542 | 0.391 | 0.302
3 | NCI-H1734 | 0.86 | 0.872 | 0.662 | 0.112 | 0.0892 | 0.419 | 0.407 | 0.451 | 0.178 | 0.114 | 0.814 | 0.999 | 0.731 | 0.234 | 0.13 | 0.417 | 0.375 | 0.391 | 0.162 | 0.104
4 | NCI-H1755 | 0.975 | 0.979 | 0.917 | 0.269 | 0.165 | 0.404 | 0.495 | 0.472 | 0.286 | 0.239 | 0.913 | 1.01 | 0.956 | 0.63 | 0.195 | 0.658 | 0.616 | 0.551 | 0.333 | 0.221
5 | NCI-H1792 | 0.622 | 0.582 | 0.638 | 0.633 | 0.582 | 0.656 | 0.837 | 0.827 | 0.4 | 0.057 | 0.863 | 0.999 | 0.919 | 0.84 | 0.0942 | 0.273 | 0.267 | 0.166 | 0.0557 | 0.0429
6 | NCI-H1915 | 0.676 | 0.764 | 0.799 | 0.0915 | 0.0811 | 0.496 | 0.475 | 0.494 | 0.396 | 0.0489 | 1.01 | 1.04 | 1.01 | 0.555 | 0.54 | 0.368 | 0.393 | 0.337 | 0.234 | 0.165
7 | NCI-H1975 | 1.05 | 1.05 | 0.315 | 0.136 | 0.133 | 0.274 | 0.253 | 0.158 | 0.136 | 0.122 | 0.403 | 0.408 | 0.31 | 0.159 | 0.109 | 0.409 | 0.397 | 0.388 | 0.138 | 0.118
8 | NCI-H1993 | 0.94 | 0.982 | 1.01 | 0.52 | 0.48 | 0.701 | 0.585 | 0.627 | 0.395 | 0.391 | 1.08 | – | 1.2 | 0.781 | 0.391 | 0.462 | 0.492 | 0.427 | 0.498 | 0.437
9 | NCI-H2009 | 1.16 | 1.1 | 1.15 | 0.0798 | 0.0607 | 1.05 | 1.05 | 1.02 | 0.553 | 0.0697 | 1.04 | 0.54 | 1.11 | 0.423 | 0.15 | 0.501 | 0.503 | 0.492 | 0.27 | 0.148
10 | NCI-H2023 | 0.967 | 0.994 | 0.936 | 0.17 | 0.0898 | 0.25 | 0.247 | 0.246 | 0.0916 | 0.0786 | 1.01 | 1.12 | 0.91 | 0.0954 | 0.0652 | 0.366 | 0.517 | 0.382 | 0.0903 | 0.0763
11 | NCI-H2085 | 1.18 | 1.14 | 1.05 | 0.248 | 0.211 | 0.827 | 0.873 | 0.991 | 0.403 | 0.206 | 1.06 | 1.05 | 1.07 | 0.651 | 0.333 | 0.653 | 0.769 | 0.679 | 0.279 | 0.236
12 | NCI-H2087 | 0.991 | 1.02 | 0.509 | 0.0888 | 0.0686 | 0.626 | 0.761 | 0.63 | 0.0855 | 0.0402 | 0.792 | 1.03 | 0.818 | 0.648 | 0.11 | 0.536 | 0.318 | 0.488 | 0.105 | 0.1
13 | NCI-H2126 | 0.857 | 0.844 | 0.827 | 0.848 | 0.327 | 0.648 | 0.695 | 0.707 | 0.61 | 0.536 | 1.07 | 1.14 | 1.19 | 1.09 | 1.02 | 0.518 | 0.557 | 0.525 | 0.365 | 0.227
14 | NCI-H2228 | 1 | 1.05 | 0.368 | 0.0925 | 0.0601 | 0.369 | 0.356 | 0.275 | 0.112 | 0.0808 | 0.96 | 0.917 | 0.74 | 0.0986 | 0.0661 | 0.286 | 0.284 | 0.238 | 0.066 | 0.0616
15 | NCI-H2347 | 0.513 | 0.847 | 0.651 | 0.197 | 0.193 | 0.418 | 0.43 | 0.413 | 0.417 | 0.357 | 0.829 | 1.21 | 1.04 | 1.32 | 0.461 | 0.402 | 0.347 | 0.435 | 0.38 | 0.208
16 | NCI-H2405 | 0.769 | – | 0.134 | 0.0865 | 0.113 | 1.02 | 0.792 | 1.11 | 0.121 | 0.14 | 0.963 | 0.819 | 1.02 | 0.865 | 0.958 | 0.377 | 0.307 | 0.422 | 0.244 | 0.1
